Tested on: Subjects With Active Crohn's Disease
Test: LDL determination, Study 5 (Crohn's disease)
Type: in vivo, human
Conditions: for [LDL] Median CFB - 10 weeks results: 200 mg q.d. (N = 130)
Excerpt: Double-Blind, Randomized, Placebo-Controlled, Multi-Centre Study to Investigate the Efficacy and Safety of Compound 1 in Subjects With Active Crohn's Disease With Evidence of Mucosal Ulceration.
This is a double-blind, randomized, placebo-controlled, multi-centre Phase 2 study to investigate the efficacy and safety of Compound 1 administered once daily for the treatment of active CD with evidence of mucosal ulceration. The pharmacokinetics (including a PK substudy) and pharmacodynamics of Compound 1 and metabolite in CD will also be characterised.
A total of 180 eligible subjects will be randomized to receive Compound 1 or placebo in addition to their stable background treatment (eg, corticosteroids, aminosalicylates, or CD-related antibiotics). The study will consist of 2 parts, with total treatment duration of 20 weeks. Randomization in Part 1 will be stratified according the subject's previous anti-TNF exposure/response, CRP level at Screening, and oral corticosteroid use at visit Day −1.
After the first 10 weeks of treatment in Part 1, patients will be re-randomized for Part 2 as shown in the diagram below and will be stratified according to the subject's clinical response, previous anti-TNF exposure/response, and oral corticosteroid use at visit Day −1.
The following assays were conducted at Eurofins Global Central Laboratory, Bergschot 71, 4817 PA Breda, The Netherlands, and at Quest Diagnostics, Clinical Trials, Quest House, 125-135 Staines Road, Hounslow, Middlesex, TW3 3JB, United Kingdom. The assays for Study 5 were performed at BARC Europe, 3B, Industrie Park, Zwijnaarde, B-9052 Ghent, Belgium.
The determination of [LDL]-cholesterol is made using an automated method taking advantage of the selective micellary solubilization of [LDL]-cholesterol by a nonionic detergent and the interaction of a sugar compound and lipoproteins (VLDL and chylomicrons).
When a detergent is included in the enzymatic method for cholesterol determination (cholesterol esterase, cholesterol oxidase coupling reaction), the relative reactivities of cholesterol in the lipoprotein fractions increase in this order: [HDL]<chylomicrons <VLDL <[LDL]. In the presence of Mg^2+, a sugar compound markedly reduces the enzymatic reaction of the cholesterol measurement in VLDL and chylomicrons. The combination of a sugar compound with detergent enables the selective determination of [LDL]-cholesterol in serum. (Friedewald et al., 1972; Rifai et al., 1992)
Homogeneous enzymatic colorimetric assay.
In the presence of peroxidase, the hydrogen peroxide generated reacts with 4-aminoantipyrine and Sodium N-(2-hydroxy-3-sulfopropyl)-3,5-dimethoxyaniline (HSDA) to form a purple-blue dye.
The color intensity of this dye is directly proportional to the cholesterol concentration and is measured photometrically.
Human serum and plasma samples [LDL] determination was done on a Roche/Hitachi Cobas c 701/702 system which automatically calculate the analyte concentration of each sample. Samples containing precipitates are centrifuged before performing the assay.

[1] = 200 mg q.d. continued to week 20, week 2
[2] = 200 mg q.d. continued to week 20, week 4
[3] = 200 mg q.d. continued to week 20, week 6
[4] = 200 mg q.d. continued to week 20, week 10
[5] = 200 mg q.d. continued to week 20, week 12
[6] = 200 mg q.d. continued to week 20, week 16
[7] = 200 mg q.d. continued to week 20, week 20
[8] = 200 mg q.d. week 0 to 10, then 100 mg q.d. (N = 30), week 2
[9] = 200 mg q.d. week 0 to 10, then 100 mg q.d. (N = 30), week 4
[10] = 200 mg q.d. week 0 to 10, then 100 mg q.d. (N = 30), week 6
[11] = 200 mg q.d. week 0 to 10, then 100 mg q.d. (N = 30), week 10
[12] = 200 mg q.d. week 0 to 10, then 100 mg q.d. (N = 30), week 12
[13] = 200 mg q.d. week 0 to 10, then 100 mg q.d. (N = 30), week 16
[14] = 200 mg q.d. week 0 to 10, then 100 mg q.d. (N = 30), week 20
[15] = 200 mg q.d. week 0 to 10, then placebo (N = 23), week 2
[16] = 200 mg q.d. week 0 to 10, then placebo (N = 23), week 4
[17] = 200 mg q.d. week 0 to 10, then placebo (N = 23), week 6
[18] = 200 mg q.d. week 0 to 10, then placebo (N = 23), week 10
[19] = 200 mg q.d. week 0 to 10, then placebo (N = 23), week 12
[20] = 200 mg q.d. week 0 to 10, then placebo (N = 23), week 16
[21] = 200 mg q.d. week 0 to 10, then placebo (N = 23), week 20
[22] = 200 mg q.d. week 0 to 10, to 100 mg q.d. week 10 to 20, week 2
[23] = 200 mg q.d. week 0 to 10, to 100 mg q.d. week 10 to 20, week 4
[24] = 200 mg q.d. week 0 to 10, to 100 mg q.d. week 10 to 20, week 6
[25] = 200 mg q.d. week 0 to 10, to 100 mg q.d. week 10 to 20, week 10
[26] = 200 mg q.d. week 0 to 10, to 100 mg q.d. week 10 to 20, week 12

O=C(Nc1nc2cccc(-c3ccc(CN4CCS(=O)(=O)CC4)cc3)n2n1)C1CC1 [Compound 1, cyclopropanecarboxylic acid {5-[4-(1,1-dioxo-thiomorpholin-4-ylmethyl)-phenyl]-[1,2,4]triazolo[1,5-a]pyridin-2yl}-amide]
[LDL] Median CFB - 10 weeks results (week 2): -0.050 mmol/L | [LDL] Median CFB - 10 weeks results (week 4): -0.050 mmol/L | [LDL] Median CFB - 10 weeks results (week 6): 0.025 mmol/L | [LDL] Median CFB - 10 weeks results (week 10): 0.160 mmol/L | [LDL] Mean CFB - 20 weeks results [1]: 3.14% | [LDL] Median CFB - 20 weeks results [1]: −2.51% | [LDL] Mean CFB - 20 weeks results [2]: 1.21% | [LDL] Median CFB - 20 weeks results [2]: −2.16% | [LDL] Mean CFB - 20 weeks results [3]: 0.73% | [LDL] Median CFB - 20 weeks results [3]: −0.61% | [LDL] Mean CFB - 20 weeks results [4]: 14.77% | [LDL] Median CFB - 20 weeks results [4]: 8.26% | [LDL] Mean CFB - 20 weeks results [5]: 9.98% | [LDL] Median CFB - 20 weeks results [5]: 5.42% | [LDL] Mean CFB - 20 weeks results [6]: 12.35% | [LDL] Median CFB - 20 weeks results [6]: 7.42% | [LDL] Mean CFB - 20 weeks results [7]: 11.56% | [LDL] Median CFB - 20 weeks results [7]: 6.93% | [LDL] Mean CFB - 20 weeks results [8]: -0.02 mmol/L | [LDL] Median CFB - 10 weeks results 20 weeks results [8]: -0.05 mmol/L | [LDL] Mean CFB - 20 weeks results [9]: 0.00 mmol/L | [LDL] Median CFB - 10 weeks results 20 weeks results [9]: -0.10 mmol/L | [LDL] Mean CFB - 20 weeks results [10]: 0.00 mmol/L | [LDL] Median CFB - 10 weeks results 20 weeks results [10]: 0.04 mmol/L | [LDL] Mean CFB - 20 weeks results [11]: 0.10 mmol/L | [LDL] Median CFB - 10 weeks results 20 weeks results [11]: 0.17 mmol/L | [LDL] Mean CFB - 20 weeks results [12]: 0.10 mmol/L | [LDL] Median CFB - 10 weeks results 20 weeks results [12]: 0.19 mmol/L | [LDL] Mean CFB - 20 weeks results [13]: 0.01 mmol/L | [LDL] Median CFB - 10 weeks results 20 weeks results [13]: -0.05 mmol/L | [LDL] Mean CFB - 20 weeks results [14]: 0.01 mmol/L | [LDL] Median CFB - 10 weeks results 20 weeks results [14]: 0.04 mmol/L | [LDL] Mean CFB - 20 weeks results [15]: 0.037 mmol/L | [LDL] Median CFB - 10 weeks results 20 weeks results [15]: 0.02 mmol/L | [LDL] Mean CFB - 20 weeks results [16]: -0.017 mmol/L | [LDL] Median CFB - 10 weeks results 20 weeks results [16]: 0.05 mmol/L | [LDL] Mean CFB - 20 weeks results [17]: 0.085 mmol/L | [LDL] Median CFB - 10 weeks results 20 weeks results [17]: 0.09 mmol/L | [LDL] Mean CFB - 20 weeks results [18]: 0.077 mmol/L | [LDL] Median CFB - 10 weeks results 20 weeks results [18]: 0.03 mmol/L | [LDL] Mean CFB - 20 weeks results [19]: 0.105 mmol/L | [LDL] Median CFB - 10 weeks results 20 weeks results [19]: 0.12 mmol/L | [LDL] Mean CFB - 20 weeks results [20]: 0.222 mmol/L | [LDL] Median CFB - 10 weeks results 20 weeks results [20]: 0.08 mmol/L | [LDL] Mean CFB - 20 weeks results [21]: 0.205 mmol/L | [LDL] Median CFB - 10 weeks results 20 weeks results [21]: 0.11 mmol/L | [LDL] Mean CFB - 20 weeks results [22]: 2.17% | [LDL] Median CFB - 20 weeks results [22]: −1.37% | [LDL] Mean CFB - 20 weeks results [23]: 4.07% | [LDL] Median CFB - 20 weeks results [23]: −1.98% | [LDL] Mean CFB - 20 weeks results [24]: 2.59% | [LDL] Median CFB - 20 weeks results [24]: 1.25% | [LDL] Mean CFB - 20 weeks results [25]: 5.40% | [LDL] Median CFB - 20 weeks results [25]: 7.46% | [LDL] Mean CFB - 20 weeks results [26]: 5.91% | [LDL] Median CFB - 20 weeks results [26]: 6.39%

From patent US10376520B2, “Methods for the treatment of cardiovascular disorders” (Galapagos NV, priority 2015, dated 2019)
